Experiments:
Assay type in all cases: cell-based, human
[1] = test system: T-cell response of HIV-1 infected individuals; experiment: Mapping of Tat- and Nef-specific T-cell responses to single VOPSD peptides in cohorts of HIV-1 infected individuals (Elite Controllers)
[2] = test system: Peripheral blood mononuclear cells (PBMC) of HIV-1 infected individuals; experiment: Ex vivo ELISPOT assay for single-cell IFN-γ release, HIV-infected individuals; settings: patient HSR-028
Experimental: Peripheral blood mononuclear cells (PBMC) were seeded in duplicate at 2×10^5 cells/well in 96-well plates (MAIPS4510; Millipore, Bedford, Mass.) precoated with anti-IFN-γ capture monoclonal antibody (B-B1; Diaclone, Besancon, France) and stimulated with the different peptide pools at the fixed concentration of 3 μg/ml of each peptide for 18 h at 37° C. in air plus 5% CO2. Biotinylated anti-IFN-γ detection monoclonal antibody (B-G1; Diaclone) was added for 2 h, followed by the addition of streptavidin-alkaline phosphatase conjugate (Amersham Pharmacia Biotech Europe GmbH, Freiburg, Germany) for 1 h. A chromogenic substrate (nitroblue tetrazolium-BCIP [5-bromo-4-chloro-3-indolylphosphate]; Sigma, St. Louis, Mo.) was added for 10 min. The individual spots were counted by using an Automated ELISA-Spot Assay Video Analysis System, Eli-Scan with the software Eli.Analyse V4.2 (A.EL.VIS, Hannover, Germany).
The responses were empirically scored as positive if the test wells contained a mean number of spot-forming cells (SFC) higher than the mean value plus two standard deviations in negative control wells, and if the number of SFC per million PBMC in stimulated wells (subtracted of the values of negative control wells) was ≧50. PBMC in medium alone were used to establish the negative control background, that had to be not higher than 50 SFC per million of cells (10 SFC/well). […]

[3] = test system: Nef specific CD4 and CD8 T-cells (PBMC); experiment: Intracellular cytokine staining (IFN-γ) of CD4 and CD8 T cells, Nef peptides; settings: subject V4; B8 restricted
Experimental: (§1) After thawing, PBMC were washed trice at room temperature in complete cell culture medium and plated in round bottom 96 wells/plates. All the incubations were carried out in round bottom 96 wells/plates to allow high throughput processing of the probes. 10^6 PBMC/well were incubated with 1.3 μg/ml of antibody to CD28 and with 1.3 μg/ml of antibody to CD49d (Becton Dickinson, Heidelberg, Germany) together with defined peptide pools. For each individual, a sample without peptides was included to calculate the background staining. Following one-hour incubation, 10 μg/ml of Brefeldin A were added to the cell suspension and the incubation carried out for additional 4 hours. Stimulated cells were then resuspended in Stain Buffer (0.2% BSA, 0.09% Na Azide in DPBS; Becton Dickinson) and incubated with the photoreactive fluorescent label ethidium monoazide (EMA; Molecular Probes, Leiden, The Netherlands) used as viability dye. After washing, cells were fixed and permeabilized using the BD Cytofix/Cytoperm™ Kit, (Becton Dickinson). […]
(§2) Following background subtraction, the threshold level was calculated using the 90 percentile of the negative values. […]
In this way, the authors could establish whether the higher number of individual responses measured with the new set of overlapping peptides was restricted to the CD8 compartment or interested also CD4 T-cell recognition.

[4] = test system: CD45RA+ IFN-γ− IL-2− MIP-1β+ CD8 T-cells; experiment: Polychromatic intracellular cytokine staining, detection of CD45RA+ IFN-γ− IL-2− MIP-1β+ CD8 T-cells; settings: subject V4
Experimental: as §1, with “Dickinson). Then, the following fluorochrome-conjugated antibodies were added to the cell suspension: CD3-AmCyan, CD4-PerCP, CD45RA-PECy7, CD154-FITC, IFNγ-A1700, IL2-APC and MIP1β-PE from Becton Dickinson and CD8-PacB from DAKO (Hamburg, Germany).” for “Dickinson).”
as §2

[5] = Controllers Upon Suspension (CUS)

With KKCCFHCQVCFITKALGI [peptide 2.5] the “individuals recognizing the peptide” value ([1]; CHI w T) was 1/15, the “individuals recognizing the peptide” value [1, 5] was 1/5 and the “individuals recognizing the peptide” value ([1]; Elite Controllers (EC)) was 4/13. The “individuals recognizing the peptide” value ([1]; LTNP) was 1/6.

With VLEWRFDSRLAFHHVAREL [peptide 5.29] the “individuals recognizing the peptide” value ([1]; Elite Controllers (EC)) was 7/13 and the “immunodominant response in groups other than EC” value ([1]; all other groups of HIV-1 infected individuals) was “not for any of the all the other groups of HIV-1 infected individuals”.

QVCFITKALGISYGR [peptide 2.6] was tested, and the “individuals recognizing the peptide” value ([1]; CHI w T) was 1/15, the “individuals recognizing the peptide” value ([1]; CHI w/o T) was 1/13 and the “individuals recognizing the peptide” value [1, 5] was 1/5. For the same sequence, the “individuals recognizing the peptide” value ([1]; Elite Controllers (EC)) was 7/13.

For MEPVDPRLEPW [VOPSD Tat peptide 1], the “peptide concentration of maximal recognition (single peptide titration)” value [2] was 0.5 µM.

LEPWKHPGSQPKTACTNCY [peptide 2.2] was tested, and the “individuals recognizing the peptide” value ([1]; Elite Controllers (EC)) was 5/9.

For “EPVDPRLEPWKHPGSQPKTA [20mer homolog, 20mer homolog of VOPSD Tat peptide 1 from the standard Tat 20mer set, reference compound]”, the “peptide concentration of maximal recognition (single peptide titration)” value [2] was “recognized only at the highest concentration tested”.

With FLKEKGGL the “CD8 T-cell response to the epitope” value [3] was “strong CD8 T-cell response” and the “detection of CD45RA+ IFN-γ− IL-2− MIP-1β+ CD8 T-cells” value [4] was “detected”.

Reference: patent US20110236409A1, “O[…] FROM VARIABLE ANTIGENS, T CELL POPULATIONS AND USES THEREOF” (Helmholtz Zentrum München - Deutsches Forschungszentrum für …, priority 2008, published 2011)
